Experimental data as given in paper PMC12693167, “Design, Synthesis and Anticancer Activity of 6-Substituted-1-(3,4,5-trimethoxyphenyl)-1H-indole Against Tubulin Polymerisation” (Molecules, 2025).

How the values were obtained:
[1] = test system: B16F10 melanoma tumors in BALB/c mice; assay: In vivo antitumor efficacy, subcutaneous B16-F10 melanoma model; design: species or system mouse; details: paclitaxel 10 mg/kg i.p. once daily, 14 days, from tumor weight
Experimental: The in vivo antitumor activity of compound 3g was evaluated using a mouse melanoma tumor model in BALB/c mice. Tumors were established by subcutaneous inoculation of B16F10 cells, and treatment was initiated when tumors reached a measurable size. Mice were administered vehicle control, paclitaxel (PTX, 10 mg/kg), or compound 3g (20 and 50 mg/kg) via intraperitoneal injection once daily for 14 consecutive days.
All animal procedures were approved by the Animal Ethics Committee of the Naval Medical University (permit number: EC11-055). Male BALB/c mice (6–8 weeks old, average initial body weight approximately 18–20 g) were purchased from Shanghai SLAC Laboratory Animal Co., Ltd. The inhibitory effect of compound 3g was evaluated using a subcutaneous B16-F10 melanoma xenograft model. Log-phase B16F10 cells were suspended in PBS and subcutaneously injected into mice (200 μL containing 8 × 10^5 cells per mouse) to establish tumors. Mice were randomly divided into control and treatment groups (n = 8). Compound 3g and paclitaxel were dissolved in a vehicle consisting of DMSO:PEG:Tween-80:saline (v/v/v/v, 5:35:10:50) to the desired concentrations. Treatments (paclitaxel, 10 mg/kg; compound 3g, 20 and 50 mg/kg, doses calculated on a body-weight basis) and vehicle were administered once daily via intraperitoneal injection for 14 consecutive days. Body weights were monitored throughout the study to assess acute toxicity. Tumor volumes were measured using calipers and calculated with the formula: a × b^2 × 0.5, where a and b represent the larger and smaller tumor diameters, respectively. On day 14, mice were sacrificed and tumors were excised and weighed. […] Major organs (liver and kidneys) were collected, fixed in 4% paraformaldehyde, processed into paraffin sections, stained with hematoxylin and eosin (H&E), and examined microscopically.
Murine melanoma B16-F10 xenograft tumors were established in mice, which were then administered vehicle, PTX (10 mg/kg per day), compound 3g (20 mg/kg per day), and compound 3g (50 mg/kg per day) for 14 days. […]

[2] = target: T1, Porcine brain tubulin protein (Sus scrofa, UniProt P02554); assay: In vitro tubulin polymerization assay; format: biochemical; details: 10 μM
T1 construct: Porcine brain tubulin protein was dissolved in EM buffer; from tissue; host or cells: porcine brain
Experimental: The ability of compound 3g to disrupt microtubule dynamics was assessed using an in vitro tubulin polymerization assay.
Porcine brain tubulin protein was dissolved in EM buffer containing 5% glycerol (80 mM PIPES, 2 mM GTP, 2 mM MgCl2, and 0.5 mM EGTA, pH 6.9). Compounds were diluted in EM buffer to final concentrations of 50, 25, 10, 5, and 2.5 μM and added to a pre-warmed 384-well plate, followed by pre-incubation at 37 °C. Subsequently, 14 μL of the tubulin-GTP mixture was added to each well containing the test compounds. Tubulin polymerization was monitored by measuring absorbance at 340 nm every minute for 60 min. […] Each assay was performed in triplicate.
Absorbance at 340 nm was determined every 1 min.

T1 sequence (P02554 whole entry): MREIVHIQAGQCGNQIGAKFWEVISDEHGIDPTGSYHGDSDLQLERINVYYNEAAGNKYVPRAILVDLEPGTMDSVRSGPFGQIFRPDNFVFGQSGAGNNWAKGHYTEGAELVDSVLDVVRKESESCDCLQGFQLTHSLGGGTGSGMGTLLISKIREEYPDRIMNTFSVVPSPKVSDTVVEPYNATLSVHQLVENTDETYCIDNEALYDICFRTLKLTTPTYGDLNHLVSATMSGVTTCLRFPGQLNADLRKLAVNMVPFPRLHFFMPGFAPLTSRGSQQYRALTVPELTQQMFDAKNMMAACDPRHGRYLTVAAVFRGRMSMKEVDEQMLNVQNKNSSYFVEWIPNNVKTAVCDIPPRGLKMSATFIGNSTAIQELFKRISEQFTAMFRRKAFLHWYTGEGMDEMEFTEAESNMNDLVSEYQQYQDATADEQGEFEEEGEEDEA
T1 sequence (P02550 whole entry partner): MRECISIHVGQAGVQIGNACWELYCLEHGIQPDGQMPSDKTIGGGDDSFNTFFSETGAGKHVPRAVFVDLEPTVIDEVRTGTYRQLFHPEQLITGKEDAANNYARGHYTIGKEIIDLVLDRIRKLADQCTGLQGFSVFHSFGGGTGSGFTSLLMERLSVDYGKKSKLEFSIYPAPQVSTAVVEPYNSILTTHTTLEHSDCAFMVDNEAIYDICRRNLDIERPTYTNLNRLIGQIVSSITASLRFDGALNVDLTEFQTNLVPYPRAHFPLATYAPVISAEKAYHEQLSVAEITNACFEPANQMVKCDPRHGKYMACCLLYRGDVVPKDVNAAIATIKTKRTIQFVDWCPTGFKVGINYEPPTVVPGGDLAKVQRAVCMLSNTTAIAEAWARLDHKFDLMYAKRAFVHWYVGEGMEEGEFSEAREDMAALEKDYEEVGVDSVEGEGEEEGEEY

CC(=O)O[C@H]1C(=O)[C@@]2(C)[C@H]([C@H](OC(=O)c3ccccc3)[C@]3(O)C[C@H](OC(=O)[C@H](O)[C@@H](NC(=O)c4ccccc4)c4ccccc4)C(C)=C1C3(C)C)[C@]1(OC(C)=O)CO[C@@H]1C[C@@H]2O [paclitaxel, reference compound]
tumor growth inhibition (TGI) [1]: 59.84% | effect on tubulin polymerization (positive controls) [2]: stabilizing
